19 molecules from PubChem BioAssay (NCI) can be followed below.

Values joined by “and” are separate entries in the source; they are usually repeats but may differ in a detail not shown here. Equal values may be shown once.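 Tested at 5 concentrations; 48 h exposure; 96-well plates; endpoints linearly interpolated, else capped at highest concentration. GI50 = concentration required for 50% inhibition of growth. TGI: concentration producing complete growth inhibition.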 A value given as a limit tells only on which side of the number the result lay.

One test relates to HCT-116 colon. The test is described as follows: NCI-60 cell line screen, 48 h.
In turn, `COc1ccc2c(=O)c(O)c(-c3ccc(OC)c(OC)c3)oc2c1` displayed a TGI above 100 µM.

A further test has as its system SF-268 CNS. Kind of test: NCI-60 cell line screen, 48 h.
As to `C[C@@]12C[C@@H](c3ccccc3O1)N1CCCCSC1=N2`, the TGI was above 100 µM.
As to `C=C1c2nc3ccccc3n2C=C(c2ccccc2)N1c1ccc([N+](=O)[O-])cc1`, the TGI was 49.1 µM.
`C[C@]12CC[C@H](O)CC1=CC[C@@H]1C2CC[C@]2(C)C(=O)N(N)C(=O)CC12` (stereo partly drawn): the TGI is above 100 µM.
On to `Cc1c2cnccc2c(C)c2c1c1ccccc1n2CCCN`, for which the GI50 was 0.2 µM and 0.141 µM; the TGI was 0.879 µM and 0.583 µM.
For `O=c1[nH][nH]c(=O)n1Cc1ccccc1Cn1c(=O)[nH][nH]c1=O`, the TGI is above 100 µM.
The molecule `O=C(NNC(=O)c1ccccc1SSc1ccccc1C(=O)NNC(=O)c1ccccc1S)c1ccccc1S` registered a TGI above 52.5 µM.
The molecule `Cc1nc(C(N)=S)sc1/C(CC(=O)C(=O)Nc1cccc2ccc(O)cc12)=N\NC(=O)c1ccncc1` returned a TGI above 100 µM.
Same read-out and setting: with `CN1CCN([C@H]2C[C@H]3[C@@H]4CC=C5C[C@@H](O)CC[C@]5(C)[C@H]4CC[C@]3(C)C2=O)CC1` the figure was above 100 µM; with `C=C(C1=CC(=O)C(C)(C)O1)[C@@H]1CC=C([C@@H]2CC[C@H]3[C@@]2(C)CC[C@H]2C(C)(C)C(=O)[C@H](O)C[C@]32C)[C@H](O)O1`, 3.76 µM.
Regarding `C(/c1ccco1)=c1/nc(-c2ccccc2)n2c1nc1ccccc12`, the TGI was above 100 µM.
On the same count and under the same terms, as for `CCNC(=S)N/N=C/c1cc([N+](=O)[O-])ccc1O`, the figure is above 100 µM; as for `Cc1cc(O)c2c(=O)c3ccccc3[nH]c2c1`, above 100 µM.
Same read-out and setting: with `Oc1cccc2c(Cl)ccnc12` the figure was above 39.3 µM; with `Clc1cc(OC2C3CC4CC(C3)CC2C4)nc(Cl)n1` (stereo not drawn), 49.1 µM; with `Cc1cccc2c(=O)cc(-c3ccccc3)[nH]c12`, above 100 µM.
`COc1cc([C@@H]2c3cc4c(cc3[C@@H](Nc3ccc([N+](=O)[O-])cc3C(=O)c3ccccc3)[C@H]3COC(=O)[C@H]23)OCO4)cc(OC)c1OC` showed a TGI above 100 µM.
Regarding `CCN(CC)CCC(=O)Nc1ccc2c(c1)C(=O)c1ccc(NC(=O)CCN(CC)CC)cc1C2=O`, the TGI was 18.9 µM.
The molecule `COc1nc(N)c(C(=O)CCl)c(=O)n1C` had a TGI of 55.2 µM.
Still for that read-out and setting: as for `COc1ccc2c(=O)c(O)c(-c3ccc(OC)c(OC)c3)oc2c1`, the figure is above 100 µM.

The next test relates to LOX IMVI melanoma. The test is described as follows: NCI-60 cell line screen, 48 h.
Take `C[C@@]12C[C@@H](c3ccccc3O1)N1CCCCSC1=N2`: the TGI is above 100 µM.
Same read-out and setting: as for `C=C1c2nc3ccccc3n2C=C(c2ccccc2)N1c1ccc([N+](=O)[O-])cc1`, the figure is above 100 µM; as for `C[C@]12CC[C@H](O)CC1=CC[C@@H]1C2CC[C@]2(C)C(=O)N(N)C(=O)CC12` (stereo partly drawn), above 100 µM.
`Cc1c2cnccc2c(C)c2c1c1ccccc1n2CCCN`: the GI50 is 0.163 µM; the TGI was 0.402 µM and 0.569 µM.
In turn, `O=c1[nH][nH]c(=O)n1Cc1ccccc1Cn1c(=O)[nH][nH]c1=O` displayed a TGI above 100 µM.
Still for that read-out and setting: as for `O=C(NNC(=O)c1ccccc1SSc1ccccc1C(=O)NNC(=O)c1ccccc1S)c1ccccc1S`, the figure is above 100 µM; as for `Cc1nc(C(N)=S)sc1/C(CC(=O)C(=O)Nc1cccc2ccc(O)cc12)=N\NC(=O)c1ccncc1`, above 100 µM.
Still for that read-out and setting: as for `CN1CCN([C@H]2C[C@H]3[C@@H]4CC=C5C[C@@H](O)CC[C@]5(C)[C@H]4CC[C@]3(C)C2=O)CC1`, the figure is above 100 µM; as for `C=C(C1=CC(=O)C(C)(C)O1)[C@@H]1CC=C([C@@H]2CC[C@H]3[C@@]2(C)CC[C@H]2C(C)(C)C(=O)[C@H](O)C[C@]32C)[C@H](O)O1`, 3.45 µM.
`C(/c1ccco1)=c1/nc(-c2ccccc2)n2c1nc1ccccc12` came in with a TGI above 100 µM.
`CCNC(=S)N/N=C/c1cc([N+](=O)[O-])ccc1O` returned a TGI above 100 µM.
For the molecule `Cc1cc(O)c2c(=O)c3ccccc3[nH]c2c1`, the TGI came to 64.3 µM.
On the same count and under the same terms, with `Oc1cccc2c(Cl)ccnc12` the figure was 19.6 µM.
On the same count and under the same terms, with `Clc1cc(OC2C3CC4CC(C3)CC2C4)nc(Cl)n1` (stereo not drawn) the figure was 14.4 µM.
In turn, `Cc1cccc2c(=O)cc(-c3ccccc3)[nH]c12` gave a TGI above 100 µM.
Same read-out and setting: with `COc1cc([C@@H]2c3cc4c(cc3[C@@H](Nc3ccc([N+](=O)[O-])cc3C(=O)c3ccccc3)[C@H]3COC(=O)[C@H]23)OCO4)cc(OC)c1OC` the figure was above 100 µM.
As to `CCN(CC)CCC(=O)Nc1ccc2c(c1)C(=O)c1ccc(NC(=O)CCN(CC)CC)cc1C2=O`, the TGI was 6.19 µM.
The same measure, in the same setting: with `COc1nc(N)c(C(=O)CCl)c(=O)n1C` the figure was 20.8 µM; with `COc1ccc2c(=O)c(O)c(-c3ccc(OC)c(OC)c3)oc2c1`, above 100 µM.

The next test has as its system U251 CNS. The test is described as follows: NCI-60 cell line screen, 48 h.
Molecule `C[C@@]12C[C@@H](c3ccccc3O1)N1CCCCSC1=N2` yielded a TGI above 100 µM.
On the same count and under the same terms, as for `C=C1c2nc3ccccc3n2C=C(c2ccccc2)N1c1ccc([N+](=O)[O-])cc1`, the figure is 22.6 µM; as for `C[C@]12CC[C@H](O)CC1=CC[C@@H]1C2CC[C@]2(C)C(=O)N(N)C(=O)CC12` (stereo partly drawn), above 100 µM.
As for `Cc1c2cnccc2c(C)c2c1c1ccccc1n2CCCN`, the GI50 was 0.0696 µM; the TGI was 0.911 µM and 0.523 µM.
`O=c1[nH][nH]c(=O)n1Cc1ccccc1Cn1c(=O)[nH][nH]c1=O` gave a TGI above 100 µM.
Same read-out and setting: as for `O=C(NNC(=O)c1ccccc1SSc1ccccc1C(=O)NNC(=O)c1ccccc1S)c1ccccc1S`, the figure is above 71.9 µM.
